In assay [1] the test system is GSH. Put plainly: GSH activity in skin of D-galactose-injected mice. The format is in vivo, Kunming mice. Conditions: end of the trial (14th week), 100 mg/kg each s.c. once daily for 6 weeks, compared to non-supplementation group, FIG. 7. On the procedure: (§1) Six-week-old, male, Kunming mice (n=40), weighed about 30±2 g, were obtained from Cavens Lab Animal (Changzhou, China) and housed in a controlled room (25±2° C., 60% relative humidity, 12 h light/dark cycle) with free access to water and standard laboratory diet. After an acclimation period (1 week), mice were randomly divided into four groups. Each mouse's back skin was chosen as the experimental observation area, a razor was used to shave off the back hair. 5% sodium sulfide solution was applied to the back to remove the hair.
(§2) All mice were then injected subcutaneously with same volume of D-galactose (1000 mg/kg), once a day for 8 weeks. During the entire experiment, the daily food intake and weight of each mouse were recorded every day, and the D-galactose injection dose were adjusted according to the weight change.
(§3) The four groups were non-supplement group (Con, Group 1); THC supplement group (100 mg/kg, Group 2); EGT supplement group (100 mg/kg, Group 3); and EGT+THC supplement group (100 mg/kg EGT+100 mg/kg THC, Group 4). Mice in groups 2-4 were injected subcutaneously (s.c.) into their back skins with the corresponding concentration before each major meal once daily for 6 weeks. […]
(§4) Oxidative stress is increased during aging. […] The levels of H2O2, SOD, CAT, GSH, and GSH-Px in the skin were detected with relative kits as reference. […]

Assay [2] relates to GSH-Px. Put plainly: GSH-Px activity in skin of D-galactose-injected mice. The format is in vivo, Kunming mice. The following applies: end of the trial (14th week), 100 mg/kg each s.c. once daily for 6 weeks, compared to non-supplementation group, FIG. 8. The method, then: as §1, §2, §3, §4
For assay [3], the system named is CAT. Put plainly: CAT activity in skin of D-galactose-injected mice. The format is in vivo, Kunming mice. Conditions: end of the trial (14th week), 100 mg/kg each s.c. once daily for 6 weeks, compared to non-supplementation group, FIG. 6. The method, then: as §1, §2, §3, §4
For assay [4], the system named is SOD. As to the kind of experiment: SOD activity in skin of D-galactose-injected mice. The format is in vivo, Kunming mice. Conditions: end of the trial (14th week), 100 mg/kg each s.c. once daily for 6 weeks, compared to non-supplementation group, FIG. 5. On the procedure: as §1, §2, §3, §4
Assay [5] deals with AGEs. Put plainly: Measurement of glycation: BSA incubated with D-ribose, fluorescence of the AGEs. Format: biochemical, bovine. Conditions: BSA 1 mg/ml + D-ribose 10 mM in PBS, 37° C., 10 days; THC 10 mM and/or EGT 10 mM; λex=380 nm, λem=450 nm; FIG. 1.
Experimental: The formulation of glycation products was observed placing together a bovine serum albumin (BSA) and D-ribose in the absence of THC and EGT, and in the presence of THC only, EGT only and THC and EGT combination.
Specifically, a solution of BSA at a concentration of 1 mg/ml dissolved in phosphate-buffered saline (PBS) was incubated at 37° C. for 10 days with D-ribose at a concentration of 10 mM, in the absence of THC and EGT (Group 1), and the presence of THC only (10 mM, Group 2), EGT only (10 mM, Group 3) and the THC (10 mM) and EGT (10 mM) combination (Group 4).
So, the glycation was evaluated by measuring the fluorescence of the AGEs at λem=450 nm emitted by each sample after excitation at λex=380 nm. The inhibition of glycation was visualized by the decrease in fluorescence compared with the samples treated with the sugar alone.

As to `C[N+](C)(C)[C@@H](Cc1c[nH]c(=S)[nH]1)C(=O)[O-]` [EGT, ergothioneine], the GSH activity entry in assay [1] is “significantly improved”. For the same compound, the GSH-Px activity result in assay [2] is listed as “significantly improved”. Moreover, the CAT activity entry in assay [3] is reported as “significantly improved”. Besides, the SOD activity result in assay [4] is “significantly improved”. Besides, the “percentage inhibition of fluorescence of the AGEs relative to the control (anti-glycation activity)” value in assay [5] was “fabulous anti-glycation activity”.
